Like-named read-outs stand apart in the source and are kept apart here. One block for each compound: values may come before it.
Legend:
TXA2 synthase = biological target: T1, TXA2 synthase (Homo sapiens, UniProt P24557); assay: Thromboxane Synthase Inhibition, In Vitro; format: biochemical; settings: at 1 μM (value in parentheses), human platelet microsomes
T1 construct: microsomal fractions from human platelets as enzyme source; from tissue; host or cells: microsomal fraction of human platelets
T1 sequence (P24557 1-533): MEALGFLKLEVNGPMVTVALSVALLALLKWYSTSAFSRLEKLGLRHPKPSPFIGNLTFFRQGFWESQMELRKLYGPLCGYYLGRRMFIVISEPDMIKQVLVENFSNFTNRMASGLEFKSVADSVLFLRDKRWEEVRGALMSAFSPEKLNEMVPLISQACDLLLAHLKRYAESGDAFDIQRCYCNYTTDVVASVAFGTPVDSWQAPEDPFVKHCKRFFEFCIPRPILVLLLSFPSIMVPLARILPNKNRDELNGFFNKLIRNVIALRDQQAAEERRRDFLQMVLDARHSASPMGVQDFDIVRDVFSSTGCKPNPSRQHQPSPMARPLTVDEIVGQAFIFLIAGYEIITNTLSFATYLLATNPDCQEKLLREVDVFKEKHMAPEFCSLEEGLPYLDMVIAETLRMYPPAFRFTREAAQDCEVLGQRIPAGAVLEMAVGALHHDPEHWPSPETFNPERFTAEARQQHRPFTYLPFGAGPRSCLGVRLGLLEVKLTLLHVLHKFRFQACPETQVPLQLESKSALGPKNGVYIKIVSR
Procedure: TXA2 synthase activity is measured by following the conversion of ^14 C-prostaglandin endoperoxide (PGH2) to ^14 C-thromboxane A2 (TXA2) using microsomal fractions from human platelets as enzyme source. In the aqueous incubation medium, the TXA2 decomposes rapidly into TXB2. The amount of TXA2 synthase is adjusted so that under the conditions of the assay approximately 80-90% of the substrate, PGH2, is converted to product in control tubes. To prepare ^14 C-PGH2, ^14 C-AA (50-60 mCi/mmole; Rose Chem.) is incubated with sheep seminal vesicular gland microsomes for 1.5 minutes at 37° C. and then the ^14 C-PGH2 is extracted with diethylether, purified on columns of Sephadex LH-20 or silicic acid, and stored in acetone at -70° C. Incubations are done as follows. Sufficient ^14 C-PGH2 yield a final substrate concentration of 10 μM (~30,000 cpm) is added to the incubation tubes and then the acetone is removed under nitrogen. […] The tubes are incubated at 22° C. for 2 minutes, the reaction is stopped and then the radioactive products and the unconverted PGH2 are extracted and analyzed by thin layer chromatography. […] The amount of ^14 C-PGH2 converted to products was used as a measure of TXA2 synthase activity. Inhibitors were tested initially at a final concentration of 100 μM. Results obtained with representative compounds of the present invention in this assay are summarized hereafter in Table I, II and III.

PAF [1] = biological target: T2, PAF (Canis lupus familiaris, UniProt A0A8I3NSH0); assay: PAF Radioreceptor Binding Assay; settings: dog platelets, 3H-PAF
T2 construct: followed by 2×10^7 dog platelets; from tissue; host or cells: washed platelets from citrate-treated dog blood
T2 sequence (A0A8I3NSH0 1-343): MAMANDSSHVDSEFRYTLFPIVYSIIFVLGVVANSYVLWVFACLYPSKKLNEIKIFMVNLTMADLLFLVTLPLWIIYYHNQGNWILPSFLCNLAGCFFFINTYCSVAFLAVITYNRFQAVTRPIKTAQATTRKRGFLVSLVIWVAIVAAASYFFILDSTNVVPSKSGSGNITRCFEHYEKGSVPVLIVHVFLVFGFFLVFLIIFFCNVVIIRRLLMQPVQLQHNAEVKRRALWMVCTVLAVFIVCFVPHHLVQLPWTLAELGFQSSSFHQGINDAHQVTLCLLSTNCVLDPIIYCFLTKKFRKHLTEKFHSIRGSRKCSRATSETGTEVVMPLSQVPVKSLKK
Procedure: Platelet rich plasma is prepared by centrifugation of citrate-treated dog blood. Acidification to pH 6.5 with 0.15 M citric acid and centrifugation for 10 minutes at 1000 xg yields a platelet pellet which is then washed by resuspension in EDTA-Phosphate Buffered Saline (PBS) and recentrifuged. The washed platelet preparation is adjusted to 2×10^7 platelets/50 μl in 0.1% BSA-PBS. […] After mixing, incubating for 10 minutes at room temperature, and centrifuging for 1 minute in a Beckman Microfuge B (8000 xg), the pellet is removed by clipping off the tip of the tube, the platelets are solubilized with 200 μl of 50% methanol, and counted in 10 ml of Aquasol. […] Results obtained with representative compounds of the present invention in this assay are summarized hereinafter in Tables I, II and III.

SRS-A = assay: Guinea Pig Ileum, In Vitro (SRS-A antagonism)
Procedure: The guinea pig ileum bioassay system has been described by Orange and Austen, Adv. Immunol. 10: 104-144 ([…]). A 1.5 cm segment is removed from animals weighting 300-400 g. and suspended in an organ bath containing 10 ml. of Tyrodes solution with 10^-6 M atropine sulfate and 10^-6 M pyrilamine maleate. The bath is maintained at 37° C. and aerated with a mixture of 95% oxygen and 5% carbon dioxide. The SRS-A utilized in this screen is obtained by challenging chopped lung fragments from actively sensitized guinea pigs with egg albumin, in vitro. A dose-response curve to SRS-A challenge is established for the ileum. The dose of SRS-A which gives 50% of the maximal contraction (EC50) is then used for subsequent challenge. The drug concentration which inhibits, by 50%, the SRS-A induced constriction of the guinea pig ileum is determined.

PAF [2] = assay: PAF-Induced Guinea Pig Bronchoconstriction Test; format: in vivo, guinea pig (Hartley); settings: 1.0 mg/kg i.v., 1 min pretreatment
Procedure: Male guinea pigs (Hartley strain) weighing 300 to 500 g are anesthetized with urethane (2 g/kg) intraperitoneally and a polyethylene cannula is inserted into the jugular vein for drug administration. Tracheal pressure is recorded from a cannula inserted in the trachea and connected to a Statham pressure transducer. Propranolol (0.1 mg/kg) is administered intravenously five minutes before challenge with synthetic PAF, the animals's skeletal muscles are then paralyzed with succinylcholine (1.2 mg/kg i.v.), and the animal is respirated using a Harvard small animal respirator operating at 40 breaths/min and 2.5 cc stroke volume. Under these conditions PAF induces a dose-dependent increase in ventilatory pressure over a dose range of 0.5 to 5 pg/kg i.v. The bronchoconstrictive effect of PAF occurs at approximately a 10-fold lower dose than that obtained with LTE. For screening purposes animals are challenged with a single dose of PAF (10 pg/kg i.v.).
Test compounds are screened by either the intravenous route (1.0 mg/kg i.v., 1 min pretreatment) or oral route (100 mg/kg p.o., 2 hour pretreatment). The peak increase in ventilatory pressure (cm H2 O) is recorded for three control animals and five drug-treated animals and the percent inhibition determined.

LTD4 = assay: Leukotriene D4 (LTD4) Induced Arrhythmia Test; format: in vivo, guinea pig (Hartley); settings: 10 mg/kg i.v. 5 min. before LTD4; conscious guinea pigs
Procedure: Male Hartley guinea pigs are anesthetized with sodium pentobarbital and prepared for monitoring direct blood pressure and injecting drugs intravenously by catheterizing the right carotid artery and right jugular vein. Blood pressure, heart rate, and Lead II ECG are monitored in the conscious animal 24 hours later.
Intravenous administration of LTD4 (2.5 pg/kg) is associated with an increase in blood pressure lasting approximately 1-2 minutes followed by a decrease lasting approximately 5-15 minutes (FIG. 3). Abnormal beats consisting of premature ventricular contractions, ST elevation or depression, atrioventricular conduction block, or dissociated p waves begin during the rise in blood pressure; the peak effect occurs approximately 40 seconds after LTD4. The percent of abnormal beats was quantitated by determining the number present during the first 2 minutes after injection and calculating the percent increase above the control level. During the hypotensive response, the animal usually collapses during the 2nd or 3rd minute after LTD4.

[3] = Table II, read-out: TXA2 Synth. Inhib. % at (1μM)
[4] = Table II, read-out: SRS Antagonism IC50
[5] = Table III, read-out: TXA2 Synth. Inhib. % at (1 μM)

Compound: CCCc1c(OCCCCCC(=O)NCCSc2cccnc2)ccc(C(C)=O)c1O
inhibition at 1 µM (TXA2 synthase; [3]): 35%
IC50 (PAF [1]; Table II): 1000 nM
IC50 (SRS-A; [4]): 1000 nM

Compound: CCCc1c(OCC(O)COc2ccc3c(=O)cc(C(=O)O)oc3c2CCC)ccc(C(C)=O)c1O (stereo not drawn) [7-[3-(4-acetyl-3-hydroxy-2-propylphenoxy)-2-hydroxypropoxy]-4-oxo-8-propyl-4H-1-benzopyran-2-carboxylic acid, reference compound]
IC50 (SRS-A; standard SRS-A antagonist, read-out: IC50, SRS-A induced constriction of the guinea pig ileum): 35 nM

Compound: CCCc1c(OCc2cccc(C(=O)NCCCCc3cccnc3)c2OCC)ccc(C(C)=O)c1O [Example 36, 3-[(4-Acetyl-3-hydroxy-2-propylphenoxy)-methyl]-2-ethoxy-[4-(3-pyridinyl)butyl]benzamide]
inhibition of PAF-induced bronchoconstriction (PAF [2]): 96±2%

Compound: CCCc1c(OCc2ccc(C(=O)NCCCCc3cccnc3)c(OCC)c2)ccc(C(C)=O)c1O [Example 37, 4-[(4-Acetyl-3-hydroxy-2-propylphenoxy)-methyl]-2-ethoxy-N-[4-(3-pyridinyl)butyl]benzamide]
inhibition of PAF-induced bronchoconstriction (PAF [2]): 96±1%

Compound: CCCc1c(OCCCCCC(=O)NCCCCc2cccnc2)ccc(C(C)=O)c1O [drawing 39]
Arrhy's (R/T) (LTD4): 0/5
decrease in blood pressure (.dwnarw.XABP) (LTD4): -16 ± 6 Δmm Hg
increase in blood pressure (.uparw.XABP) (LTD4): 6 ± 3 Δmm Hg

Compound: CCCc1c(OCCCC(=O)NCCCCc2cccnc2)ccc(C(C)=O)c1O [drawing 40]
Arrhy's (R/T) (LTD4): 0/3
decrease in blood pressure (.dwnarw.XABP) (LTD4): -26 ± 8 Δmm Hg
increase in blood pressure (.uparw.XABP) (LTD4): 6 ± 6 Δmm Hg

Compound: CCCc1c(OCCCCCC(=O)NCCCCc2cncnc2)ccc(C(C)=O)c1O [drawing 41]
Arrhy's (R/T) (LTD4): 1/3
decrease in blood pressure (.dwnarw.XABP) (LTD4): -44 ± 5 Δmm Hg
increase in blood pressure (.uparw.XABP) (LTD4): 32 ± 2 Δmm Hg

Compound: CCCc1c(OCC#CCCCC(=O)NCCCCc2cccnc2)ccc(C(C)=O)c1O [drawing 42]
Arrhy's (R/T) (LTD4): 1/3
decrease in blood pressure (.dwnarw.XABP) (LTD4): -44.5 Δmm Hg
increase in blood pressure (.uparw.XABP) (LTD4): 18 ± 4 Δmm Hg

Now from value to compound, other results behind:

inhibition at 1 µM (TXA2 synthase; Table I, read-out: TXA2 Syn. Inhib. (1μM)): 89%
inhibition at 1 µM (TXA2 synthase; [5]): 89%
IC50 (PAF [1]; Table I): 250 nM
IC50 (SRS-A; Table I, read-out: SRS-A Antagonism IC50): 5000 nM
Compound: CCCc1c(OCCCC(=O)NCCCCc2cccnc2)ccc(C(C)=O)c1O [Example 5, 4-(4-Acetyl-3-hydroxy-2-propylphenoxy)-N-[4-(3-pyridinyl)butyl]butanamide]
inhibition of PAF-induced bronchoconstriction (PAF [2]): 64±12%

inhibition at 1 µM (TXA2 synthase; [5]): 78%
IC50 (PAF [1]; Table III): 1000 nM
Compound: CCCc1c(OCC(C)CC(=O)NC(C)CCCc2cccnc2)ccc(C(C)=O)c1O (stereo not drawn) [Example 26, 4-(4-Acetyl-3-hydroxy-2-propylphenoxy)-3-methyl-N-[1-methyl-4-(3-pyridinyl)butyl]-butanamide]

inhibition at 1 µM (TXA2 synthase; [5]): 77%
IC50 (PAF [1]; Table III): 300 nM
Compound: CCCc1c(OCCCC(=O)NC(C)CCCc2cccnc2)ccc(C(C)=O)c1O (stereo not drawn) [Example 27, 4-(4-Acetyl-3-hydroxy-2-propylphenoxy)-N-[1-methyl-4-(3-pyridinyl)butyl]butanamide]

inhibition at 1 µM (TXA2 synthase; [5]): 89%
IC50 (PAF [1]; Table III): 900 nM
Compound: CCCc1c(OCCCCCNC(=O)NCCCCc2cccnc2)ccc(C(C)=O)c1O [Example 29, N-[5-(4-Acetyl-3-hydroxy-2-propylphenoxy)-pentyl]-N'-[4-(3-pyridinyl)butyl]urea]
inhibition of PAF-induced bronchoconstriction (PAF [2]): 68±10%

inhibition at 1 µM (TXA2 synthase; [5]): 93%
IC50 (PAF [1]; Table III): 700 nM
Compound: CCCc1c(OCCCNC(=O)NCCCCc2cccnc2)ccc(C(C)=O)c1O [Example 30, N-[3-(4-acetyl-3-hydroxy-2-propylphenoxy)-propyl]-N'-[4-(3-pyridinyl)butyl]urea]

inhibition at 1 µM (TXA2 synthase; [3]): 66%
IC50 (PAF [1]; Table II): 550 nM
IC50 (SRS-A; [4]): 10000 nM
Compound: CCCc1c(OCCCCCC(=O)NCCCCc2cncnc2)ccc(C(C)=O)c1O [drawing 31]

IC50 (PAF [1]; Table II): 600 nM
IC50 (SRS-A; [4]): 700 nM
Compound: CCCc1c(OCC#CCCCC(=O)NCCCCc2cccnc2)ccc(C(C)=O)c1O [drawing 35]

inhibition at 1 µM (TXA2 synthase; [3]): 88%
IC50 (PAF [1]; Table II): 500 nM
Compound: CCCc1c(OCCCC#CC(=O)NCCCCc2cccnc2)ccc(C(C)=O)c1O [drawing 36]

Source: patent US4672066A, “Derivatives of 4-acetyl-3-hydroxy-2-alkyl-phenoxycarboxylic acids” (Hoffmann-La Roche Inc., priority 1985, dated 1987)
